In patent US11034653B2, “Crystal form of estrogen receptor inhibitor and preparation method therefor” (LUOXIN PHARMACEUTICAL (SHANGHAI) CO., LTD., priority 2017, dated 2021):

What was measured:
[1] = Hygroscopicity study by dynamic vapor sorption (DVS); format: physicochemical; settings: 25° C./80% RH
Protocol: Dynamic Vapor Sorption (DVS)
Instrument model: SMS DVS Advantage dynamic vapor sorption analyzer
Test conditions: samples (10-15 mg) were disposed in the DVS sample tray for testing.
The detailed DVS parameters were as follows:
Balance: dm/dt=0.01%/min (shortest: 10 min, longest: 180 min)
Drying: drying for 120 min at 0% RH
RH (%) test step range: 0%-90%-0%
The hygroscopicity evaluation is classified as follows:
SMS DVS Advantage dynamic vapor sorption analyzer

[2] = Solid stability test under high humidity and light irradiation conditions (XRPD, HPLC); format: physicochemical
Protocol: High Performance Liquid Chromatograph (HPLC)
The bottles containing samples placed under high humidity condition were sealed with aluminum foil. Small holes were made in the aluminum foil to ensure that the samples can fully contact with the ambient air. The samples were tested on the 10th day. The bottles containing samples placed under light condition were left open and the samples were exposed to a light source, and tested after being irradiated enough energy. The test results were compared with the initial test results on day 0.

[3] = Long-term crystal form stability test under high temperature and high humidity conditions (XRPD); format: physicochemical; settings: 40° C., 75% RH, 10th day and 31th day
[4] = cited from earlier work
breast cancer patients = settings: intramuscular injection; cited from earlier work

CC/C(=C(/c1ccc(/C=C/C(=O)O)cc1)c1[nH]c2ccccc2c1Cl)c1ccc(F)cc1Cl
Hygroscopicity classification [1]: almost non-hygroscopic | ΔW, weight increase caused by hygroscopy ([1]; DVS): 0.1687% | Crystal form (XRPD) ([2]; 0 day): Crystal form A | Purity (%) ([2]; 0 day): 96.99% | Related substance at relative retention time 0.97 (HPLC) ([2]; 0 day): 0.21 | Related substance at relative retention time 1.02 (HPLC) ([2]; 0 day): 0.36 | Related substance at relative retention time 1.05 (HPLC) ([2]; 0 day): 0.30 | Total content of related substances (%) ([2]; 0 day): 0.87% | Crystal form (XRPD) ([2]; High humidity (room temperature/relative humidity 92.5%, exposed), 10th day): Crystal form A | Related substance at relative retention time 0.97 (HPLC) ([2]; High humidity, 10 days): 0.22 | Related substance at relative retention time 1.02 (HPLC) ([2]; High humidity, 10 days): 0.23 | Related substance at relative retention time 1.05 (HPLC) ([2]; High humidity, 10 days): 0.31 | Total content of related substances (%) ([2]; High humidity, 10 days): 0.77% | Purity (%) ([2]; Light irradiation): 101.09% | Related substance at relative retention time 0.88 (HPLC) ([2]; Light irradiation): 0.05 | Related substance at relative retention time 0.97 (HPLC) ([2]; Light irradiation): 0.22 | Related substance at relative retention time 0.98 (HPLC) ([2]; Light irradiation): 0.17 | Related substance at relative retention time 1.02 (HPLC) ([2]; Light irradiation): 0.23 | Related substance at relative retention time 1.04 (HPLC) ([2]; Light irradiation): 0.13 | Related substance at relative retention time 1.05 (HPLC) ([2]; Light irradiation): 0.17 | Total content of related substances (%) ([2]; Light irradiation): 0.98% | Crystal form (XRPD) ([2]; Light irradiation (1ICH, exposed)): Crystal form A | Solid stability (conclusion) ([2]; high humidity and light irradiation condition): stable | Crystal form stability (conclusion) [3]: stable

C[C@]12CC[C@@H]3c4ccc(O)cc4C[C@@H](CCCCCCCCC[S+]([O-])CCCC(F)(F)C(F)(F)F)[C@H]3[C@@H]1CC[C@@H]2O (some centres unmarked) [fulvestrant]
oral bioavailability [4]: zero | breast cancer patients who have shown a clinical response (breast cancer patients): about 50%
